Results: ChEMBL document CHEMBL3779854, “Biological evaluation and molecular docking studies of new curcuminoid derivatives: Synthesis and characterization” (Bioorg Med Chem Lett, 2016)
≈ marks a conversion by molar mass, not a printed value. Calls of active or inactive are those of the source. The calls are words filed in the database; no cut-off is given here.

Tests used:
[1] = Antiinflammatory activity assessed as inhibition of albumin denaturation after 15 mins by BSA assay; format: functional
[2] = Antioxidant activity assessed as H2O2 scavenging activity; format: physicochemical
[3] = Antioxidant activity assessed as DPPH free radical scavenging activity by UV-visible spectrophotometric analysis; format: physicochemical
Escherichia coli [4] = experiment: Antibacterial activity against Escherichia coli ATCC 25922 at 10 ug after 24 hrs by well diffusion method; format: functional, organism-based
Staphylococcus aureus [5] = experiment: Antibacterial activity against Staphylococcus aureus ATCC 25923 at 10 ug after 24 hrs by well diffusion method; format: functional, organism-based
Escherichia coli [6] = experiment: Antibacterial activity against Escherichia coli ATCC 25922 at 50 ug after 24 hrs by well diffusion method; format: functional, organism-based
Klebsiella pneumoniae = experiment: Antibacterial activity against Klebsiella pneumoniae ATCC 13883 at 50 ug after 24 hrs by well diffusion method; format: functional, organism-based
Staphylococcus aureus [7] = experiment: Antibacterial activity against Staphylococcus aureus ATCC 25923 at 50 ug after 24 hrs by well diffusion method; format: functional, organism-based
Pseudomonas aeruginosa = experiment: Antibacterial activity against Pseudomonas aeruginosa ATCC 27853 at 50 ug after 24 hrs by well diffusion method; format: functional; conditions: for zone of inhibition at 50 µg/disc: ATCC 27853, 24 h, read-out: IZ

| IC50 [1] | IC50 [2] | IC50 [3] | Structure (SMILES) | Activity (Escherichia coli [4]) | Activity (Staphylococcus aureus [5]) | Activity (Escherichia coli [6]) | Activity (Klebsiella pneumoniae) | Activity (Staphylococcus aureus [7]) | zone of inhibition at 50 µg/disc (Pseudomonas aeruginosa) | Activity (Pseudomonas aeruginosa) |
| --- | --- | --- | --- | --- | --- | --- | --- | --- | --- | --- |
| 751.12 µg/mL (≈ 1620 µM) | 79.59 µg/mL (≈ 171 µM) | 88.05 µg/mL (≈ 190 µM) | COc1ccc(-n2nc(/C=C/c3ccc(N(C)C)cc3)cc2/C=C/c2ccc(N(C)C)cc2)cc1 | Active | inactive |  |  |  |  |  |
| 129.85 µg/mL (≈ 352 µM) | 52.24 µg/mL (≈ 142 µM) | 52.51 µg/mL (≈ 143 µM) | COc1cc(/C=C/C(=O)CC(=O)/C=C/c2ccc(O)c(OC)c2)ccc1O [CURCUMIN] | Active | Active | Active | Active | Active | 11 mm |  |
| 186.05 µg/mL (≈ 347 µM) | 74.6 µg/mL (≈ 139 µM) | 81.69 µg/mL (≈ 153 µM) | CN(C)c1ccc(/C=C/C(=O)/C(CNc2cccc(C(F)(F)F)c2)=C(O)/C=C/c2ccc(N(C)C)cc2)cc1 | inactive | inactive |  |  |  |  |  |
|  | 68.82 µg/mL (≈ 391 µM) | 65.53 µg/mL (≈ 372 µM) | O=C1O[C@H]([C@@H](O)CO)C(O)=C1O [ASCORBIC ACID] |  |  |  |  |  |  |  |
| 226.71 µg/mL (≈ 467 µM) | 46.9 µg/mL (≈ 96.6 µM) | 48.16 µg/mL (≈ 99.2 µM) | CN(C)c1ccc(/C=C/C(=O)/C(CNc2ccc(F)cc2)=C(O)/C=C/c2ccc(N(C)C)cc2)cc1 | Active | inactive | Active | Active |  | 12 mm |  |
| 29.44 µg/mL (≈ 67.7 µM) | 72.42 µg/mL (≈ 167 µM) | 74.03 µg/mL (≈ 170 µM) | CN(C)c1ccc(/C=C/c2cc(/C=C/c3ccc(N(C)C)cc3)n(-c3ccccc3)n2)cc1 | Active | Active | Active |  | Active |  |  |
| 216.32 µg/mL (≈ 478 µM) | 89.05 µg/mL (≈ 197 µM) | 74.38 µg/mL (≈ 164 µM) | CN(C)c1ccc(/C=C/c2cc(/C=C/c3ccc(N(C)C)cc3)n(-c3ccc(F)cc3)n2)cc1 | Active |  | Active | Active | Active |  |  |
| 106.16 µg/mL (≈ 214 µM) | 44.95 µg/mL (≈ 90.5 µM) | 75.37 µg/mL (≈ 152 µM) | COc1cc(C=C(C(=O)/C=C/c2ccc(N(C)C)cc2)C(=O)/C=C/c2ccc(N(C)C)cc2)ccc1O | Active |  | Active |  |  |  | Active |
| 808.36 µg/mL (≈ 1730 µM) | 52.13 µg/mL (≈ 111 µM) | 79.06 µg/mL (≈ 169 µM) | CN(C)c1ccc(/C=C/C(=O)/C(CNc2ccccc2)=C(O)/C=C/c2ccc(N(C)C)cc2)cc1 | Active | Active |  |  | Active |  |  |
| 81.36 µg/mL (≈ 163 µM) | 53.94 µg/mL (≈ 108 µM) | 76.28 µg/mL (≈ 153 µM) | COc1ccccc1NC/C(C(=O)/C=C/c1ccc(N(C)C)cc1)=C(O)\C=C\c1ccc(N(C)C)cc1 | Active |  |  |  | Active |  |  |
| 52.95 µg/mL |  |  | O=C([O-])Cc1ccccc1Nc1c(Cl)cccc1Cl.[Na+] [DICLOFENAC SODIUM] |  |  |  |  |  |  |  |
| 180.38 µg/mL (≈ 498 µM) | 74.56 µg/mL (≈ 206 µM) | 78.52 µg/mL (≈ 217 µM) | CN(C)c1ccc(/C=C/C(=O)/C=C(O)/C=C/c2ccc(N(C)C)cc2)cc1 |  |  |  |  |  |  |  |
| 51.79 µg/mL (≈ 144 µM) | 50.78 µg/mL (≈ 142 µM) | 46.05 µg/mL (≈ 128 µM) | CN(C)c1ccc(/C=C/c2cc(/C=C/c3ccc(N(C)C)cc3)[nH]n2)cc1 | Active | inactive |  | Active |  |  | Active |
